The source made the active and inactive calls. No cut-off for these calls is given here.
Key:
[1] = AUC in ICR mouse at 20 mg/kg, po by LC-MS/MS analysis; type: ADME, organism-based; parameters: dose 20 mg/kg, route po; conditions: in vivo
[2] = Cmax in ICR mouse at 20 mg/kg, po by LC-MS/MS analysis; type: ADME, organism-based; parameters: dose 20 mg/kg, route po; conditions: in vivo
MIA PaCa-2 [3] = assay: In vivo antitumor activity against human MIA PaCa-2 cells harboring KRAS G12C mutant xenografted in BALB/c mouse assessed as reduction in tumor volume at 50 mg/kg, po once a day measured for 16 days relative to control; type: functional; parameters: scale not given: the % may be the effect or the level left; conditions: time 16 day
[4] = MRT in ICR mouse at 20 mg/kg, po by LC-MS/MS analysis; type: ADME, organism-based; conditions: in vivo
[5] = Elimination rate constant in ICR mouse at 20 mg/kg, po by LC-MS/MS analysis; type: ADME, organism-based; conditions: in vivo; for k el: ICR
[6] = Toxicity in BALB/c mouse xenografted with human MIA PaCa-2 cells harboring KRAS G12C mutant assessed as change in body weight at 50 mg/kg, po once a day measured for 16 days; type: organism-based; conditions: in vivo, 384 h, time 16 day
[7] = Tmax in ICR mouse at 20 mg/kg, po by LC-MS/MS analysis; type: ADME, organism-based; conditions: in vivo
[8] = Toxicity in BALB/c mouse xenografted with human MIA PaCa-2 cells harboring KRAS G12C mutant assessed as mortality at 50 mg/kg, po once a day measured for 16 days; type: organism-based; conditions: in vivo, 384 h, time 16 day
[9] = Half life in ICR mouse at 20 mg/kg, po by LC-MS/MS analysis; type: ADME, organism-based; conditions: in vivo; for half-life: ICR
[10] = Inhibition of SOS1/KRAS G13D mutant protein-protein interaction in human DLD-1 cells assessed as ERK1/2 phosphorylation measured after 1 hr by homogeneous time-resolved fluorescence (HTRF) method; type: cell-based; conditions: DLD-1, 1 h
[11] = Elimination rate constant in ICR mouse at 10 mg/kg, po by LC-MS/MS analysis; type: ADME, organism-based; conditions: in vivo
[12] = MRT in ICR mouse at 10 mg/kg, po by LC-MS/MS analysis; type: ADME, organism-based; conditions: in vivo
[13] = AUC in ICR mouse at 10 mg/kg, po by LC-MS/MS analysis; type: ADME, organism-based; parameters: dose 10 mg/kg, route po; conditions: in vivo
SOS1-KRAS = SOS1-KRAS (Homo sapiens, UniProt Q07889); assay: Inhibition of human recombinant SOS1 (residue 564-1049)/KRAS G12C mutant protein-protein interaction at incubated for 25 degC for 60 mins by homogeneous time-resolved fluorescence (HTRF) method
[14] = Cmax in ICR mouse at 10 mg/kg, po by LC-MS/MS analysis; type: ADME, organism-based; parameters: dose 10 mg/kg, route po; conditions: in vivo
[15] = Tmax in ICR mouse at 10 mg/kg, po by LC-MS/MS analysis; type: ADME, organism-based; conditions: in vivo
NCI-H358 = assay: Antiproliferative activity against human NCI-H358 cells harboring SOS1/KRAS G12C mutant measured after 24 hrs by AlamarBlue based 3-D proliferation assay; type: functional, cell-based
[16] = Half life in ICR mouse at 10 mg/kg, po by LC-MS/MS analysis; type: ADME, organism-based; conditions: in vivo
[17] = Metabolic stability in mouse liver microsomes assessed as half life in presence of NADPH by LC-MS/MS analysis; type: ADME, Microsome
MIA PaCa-2 [18] = assay: Antiproliferative activity against human MIA PaCa-2 cells assessed as cell viability measured after 72 hrs by MTT assay; type: functional, cell-based; conditions: MIA PaCa-2, 72 h
[19] = Metabolic stability in rat liver microsomes assessed as intrinsic clearance in presence of NADPH measured upto 60 mins by LC-MS/MS analysis; type: ADME, Microsome; conditions: read-out: CLH
[20] = Metabolic stability in mouse liver microsomes assessed as intrinsic clearance in presence of NADPH measured upto 60 mins by LC-MS/MS analysis; type: ADME, Microsome; conditions: read-out: CLH
[21] = Metabolic stability in rat liver microsomes assessed as half life in presence of NADPH by LC-MS/MS analysis; type: ADME, Microsome
MIA PaCa-2 [22] = assay: In vivo antitumor activity against human MIA PaCa-2 cells harboring KRAS G12C mutant xenografted in BALB/c mouse assessed as reduction in tumor volume at 50 mg/kg, po once a day measured for 16 days relative to BI-3406; type: functional; parameters: scale not given: the % may be the effect or the level left; conditions: time 16 day
MIA PaCa-2 [23] = assay: In vivo antitumor activity against human MIA PaCa-2 cells harboring KRAS G12C mutant xenografted in BALB/c mouse assessed as tumor growth inhibition at 50 mg/kg, po once a day measured for 16 days relative to control; type: functional; conditions: MIA PaCa-2, 384 h, time 16 day, read-out: TGI

SOS1-KRAS, sequence (Q07889 whole entry, looked up, stated change not applied): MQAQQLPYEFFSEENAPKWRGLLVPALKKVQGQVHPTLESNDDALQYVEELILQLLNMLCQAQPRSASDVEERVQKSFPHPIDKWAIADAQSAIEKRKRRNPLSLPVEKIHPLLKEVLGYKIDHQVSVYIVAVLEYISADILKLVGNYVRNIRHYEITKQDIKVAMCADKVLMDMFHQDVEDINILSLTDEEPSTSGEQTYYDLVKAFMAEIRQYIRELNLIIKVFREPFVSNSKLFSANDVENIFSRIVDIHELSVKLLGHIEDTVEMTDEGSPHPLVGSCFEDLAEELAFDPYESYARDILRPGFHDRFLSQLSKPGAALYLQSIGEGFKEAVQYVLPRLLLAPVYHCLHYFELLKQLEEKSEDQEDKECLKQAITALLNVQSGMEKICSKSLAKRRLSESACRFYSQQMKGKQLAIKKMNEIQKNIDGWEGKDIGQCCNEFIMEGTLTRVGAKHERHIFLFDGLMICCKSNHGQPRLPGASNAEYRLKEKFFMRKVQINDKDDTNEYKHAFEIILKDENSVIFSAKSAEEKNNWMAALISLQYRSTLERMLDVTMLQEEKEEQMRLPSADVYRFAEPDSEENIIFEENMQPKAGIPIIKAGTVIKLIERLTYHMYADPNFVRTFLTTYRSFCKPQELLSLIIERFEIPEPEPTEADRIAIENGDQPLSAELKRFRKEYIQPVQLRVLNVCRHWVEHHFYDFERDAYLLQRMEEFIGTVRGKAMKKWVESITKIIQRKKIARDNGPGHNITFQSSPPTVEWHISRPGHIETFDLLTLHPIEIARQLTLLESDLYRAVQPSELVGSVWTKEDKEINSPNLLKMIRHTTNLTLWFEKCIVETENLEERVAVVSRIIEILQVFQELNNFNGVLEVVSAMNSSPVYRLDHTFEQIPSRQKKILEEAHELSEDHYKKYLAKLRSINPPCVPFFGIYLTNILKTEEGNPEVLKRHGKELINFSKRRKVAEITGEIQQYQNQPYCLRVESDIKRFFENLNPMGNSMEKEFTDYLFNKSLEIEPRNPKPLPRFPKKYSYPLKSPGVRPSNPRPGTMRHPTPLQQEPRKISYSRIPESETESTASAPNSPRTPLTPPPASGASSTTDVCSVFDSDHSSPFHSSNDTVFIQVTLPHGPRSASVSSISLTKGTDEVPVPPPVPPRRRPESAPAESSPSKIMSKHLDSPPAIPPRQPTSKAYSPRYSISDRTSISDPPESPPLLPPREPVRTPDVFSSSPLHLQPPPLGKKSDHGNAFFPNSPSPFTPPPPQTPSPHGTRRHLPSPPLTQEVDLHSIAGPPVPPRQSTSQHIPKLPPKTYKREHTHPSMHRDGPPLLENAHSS

Compound | AUC [1] | Cmax [2] | Activity (MIA PaCa-2 [3]) | MRT [4] | k el [5] | Activity [6] | Tmax [7] | Activity [8] | half-life [9] | IC50 [10] | k el [11] | MRT [12] | AUC [13] | IC50 (SOS1-KRAS) | Cmax [14] | Tmax [15] | Activity (NCI-H358) | half-life [16] | half-life [17] | CLint scaled [19] | further results
Cc1nc(N[C@H](C)c2cccc(C(F)F)c2F)c2cc3c(cc2n1)OC[C@H]1CN(C(=O)[C@@H]2C[C@H]2F)CCN31 | 4010 ng·h/mL | 651 ng/mL | 49% | 4.08 h | 2.78e-05 s⁻¹ | Non-Toxic | 5.67 h | Non-Toxic | 6.67 h | 6 nM |  |  |  |  |  |  |  |  |  |  | 
CC(=O)N1CCN2c3cc4c(N[C@H](C)c5cc(N)cc(C(F)(F)F)c5)nc(C)nc4cc3OC[C@H]2C1 |  |  |  |  |  |  |  |  |  | 4.7 nM | 0.000142 s⁻¹ | 10.1 h | 53.5 ng·h/mL | 4.3 nM | 8.89 ng/mL | 1 h | Active | 1.49 h |  |  | 
CC(=O)N1CCN2c3cc4c(N[C@H](C)c5cccc(C(F)(F)CO)c5F)nc(C)nc4cc3OC[C@H]2C1 |  |  |  |  |  |  |  |  |  | 1.4 nM |  |  |  | 2.7 nM |  |  | Active |  |  |  | 
Cc1nc(N[C@H](C)c2cccc(C(F)F)c2F)c2cc3c(cc2n1)OC[C@H]1CN(C(=O)[C@H]2CCOC2)CCN31 | 9900 ng·h/mL | 1550 ng/mL | 49% | 4.19 h |  | Non-Toxic | 3.67 h | Non-Toxic |  | 5 nM |  |  |  |  |  |  |  |  | 0.437 h | 37.2 mL/min/kg | Kel ([5]; po, 20 mg/kg): 0.25 h⁻¹; IC50 (MIA PaCa-2 [18]): 178 nM; CLint scaled [20]: 209 mL/min/kg; half-life [21]: 1.12 h; Activity (MIA PaCa-2 [22]): 71%; t1/2 ([9]; po, 20 mg/kg): 11.4 h
COc1cc2nc(C)nc(N[C@H](C)c3cc(N)cc(C(F)(F)F)c3)c2cc1O[C@H]1CCOC1 | 4680 ng·h/mL | 1050 ng/mL | 42% | 2.98 h | 5.83e-05 s⁻¹ | Non-Toxic | 0.9 h | Non-Toxic | 4.48 h | 30.7 nM | 0.000147 s⁻¹ | 1.7 h | 550 ng·h/mL |  | 241 ng/mL | 0.5 h |  | 1.3 h | 0.18 h | 69.5 mL/min/kg | CLint scaled [20]: 504 mL/min/kg; half-life [21]: 0.602 h
CC(=O)N1CCN2c3cc4c(N[C@H](C)c5cccc(C(F)F)c5F)nc(C)nc4cc3OC[C@H]2C1 | 601 ng·h/mL | 270 ng/mL |  | 1.93 h | 0.000119 s⁻¹ | Non-Toxic | 0.25 h |  | 2.14 h | 2.4 nM | 0.000103 s⁻¹ | 1.9 h | 148 ng·h/mL | 6.3 nM | 63.4 ng/mL | 0.33 h | Active | 1.87 h |  |  | inhibition in vivo at 50 mg/kg (MIA PaCa-2 [23]): 42%

From ChEMBL document CHEMBL5236589, “Design and Structural Optimization of Orally Bioavailable SOS1 Inhibitors for the Treatment of KRAS-Driven Carcinoma” (J Med Chem, 2022)
